From patent publication US20230324392A1, “METHODS AND COMPOSITIONS FOR TARGETING CYTOSOLIC DSDNA SIGNALING IN CHROMOSOMALLY UNSTABLE CANCERS” (MEMORIAL SLOAN KETTERING CANCER CENTER, priority 2020, published 2023)

Columns and labels:
4T1 tumors = test: Wild-type or cGAS-knockout orthotopic 4T1 tumors treated intratumorally with ADU-S100; assay type: in vivo, mouse; conditions: ADU-S100 10 μg intratumorally, cGAS KO vs wild-type
Experimental: Methods. Briefly, wild-type or cGAS-knockout 4T1 tumors were orthotopically transplanted in the mammary fat pad of BALB/c immune competent mice. cGAS was knocked out using CRISPR-Cas9. The mice were treated intratumorally with PBS (vehicle) or the STING agonist, ADU-S100 (10 μg).

4T1 cells [1] = test: Ifnb1 and ISG expression in transfected 4T1 cells (qPCR); assay type: cell-based, mouse
Experimental: Quantitative PCR for STING inhibition study: RNA was extracted from cells with Trizol (Invitrogen, Carlsbad, CA, #15596026). cDNA was synthesized using the RNA to cDNA EcoDry™ Premix (Double Primed) kit (Takara #639549). Real-time PCR was performed to measure the relative mRNA expression levels of ISGs and the control GAPDH using Luna® Universal qPCR Master Mix (NEB, IPSWICH, MA, M3003L). The qPCR reaction and analysis were performed on a QuantStudio 6 platform (Life technology, Carlsbad, CA). The sequence of primers for Ccl5 is 5′-[…]-3′ and 5′-[…]-3′. The sequence of primers for Cxcl10 is 5′-[…]-3′ and 5′-[…]-3′, The sequence of primers for Isg15 is 5-A AAGAA-[…]-3′ and 5′-[…]-3′. The sequence for primers for Gapdh is 5′-[…]-3′ and 5′-[…]-3′.
Despite constitutive cGAS-STING activation, 4T1 cells had low baseline expression of Ifnb1 and other ISGs. […] Similar to our in vitro findings, control, cGAS-KO, and STING-KO tumors had low basal—and nearly undetectable—levels of IFN-β, when compared to those observed during active anti-tumor immune responses arising from immune checkpoint blockade of a responsive tumor model used as a reference control (FIG. 6D).

4T1 cells [2] = test: Wound migration of control, Cgas-KO and Enpp1-KO 4T1 cells; assay type: cell-based, mouse; conditions: cGAMP 5.5 μm
Experimental: Cellular growth and migration assays: Cellular proliferation rates were assessed by seeding 5×10^4 control or Enpp1-KO 4T1 cells in 6-well plates (3-4 replicates per condition). Cells were seeded in the regular RPMI medium with 10% Fetal bovine serum (FBS). About 48 hours before cells growing to form a 90% confluency monolayer, regular media were replaced with media containing indicated drugs. […] Fresh medium was changed every 12 hours. When reaching ˜90% confluency, cells were treated with RPMI medium containing 10 μm Mitomycin C for 1 hour. Wounds were formed using sterile P200 pipette tips. Images of the wounds were captured every 8 hours and were analyzed with a wound healing tool macro in ImageJ (dev.mri.cnrs.fr/projects/imagej-macros/wiki/Wound_Healing_Tool).
Through its ability to bind extracellular adenosine receptors in both tumor and immune cells, adenosine promotes cancer cell migration and is a potent immune suppressor, respectively (FIG. 12B).

4T1 cells [3] = test: Fluorescence-based indirect adenosine measurement after exogenous cGAMP; assay type: cell-based, mouse; conditions: with and without EHNA
CT26 cells = test: Tail vein inoculation of CT26 cells in BALB/c mice, metastasis and survival; assay type: in vivo, mouse; conditions: CT26, BALB/c, IP, vs vehicle
Experimental: Animal metastasis studies: Animal experiments were performed in accordance with protocols approved by the MSKCC Institutional Animal Care and Use Committee. […] There was no need to randomize animals. Investigators were not blinded to group allocation. For tail vein injections, 5×10^4 4T1, 2.5×10^4 B16F10, or 10^5 CT26 cells were injected into the tail vein of 6-7-week old BALB/c (4T1 and CT26) or C57BL/6 (B16F10) mice. Metastasis was primarily assessed through overall survival. Overall survival endpoint was met when the mice died or met the criteria for euthanasia under the IACUC protocol. Animals were censored when death was confirmed to have occurred due to metastasis-unrelated causes such as injury or death during injection, surgery, or anesthesia. Surface lung metastases were assessed at endpoint by direct visual examination after euthanasia at which points lungs were perfused and fixed in 4% paraformaldehyde (4T1 and B16F10 experiments) or stained using India-ink (CT26 experiments). […] H-151 was reconstituted in DMSO with concentration of 100 mM. Each mouse was injected intraperitoneally with 7.5 μL of H-151 stock solution in 200 μL of PBS with 0.1% Tween −80.

Nc1ncnc2c1ncn2[C@@H]1O[C@@H]2COP(=O)([S-])O[C@@H]3[C@H](O)[C@@H](COP([O-])(=S)O[C@H]2[C@H]1O)O[C@H]3n1cnc2c(N)ncnc21.[Na+].[Na+] (stereo partly shown) [ADU-S100]
tumor sensitivity (tumor volume over time) (4T1 tumors): most sensitive condition

Poly(I.C)
induction of ISGs upon transfection (4T1 cells [1]): robust induction of ISGs

Nc1nc2c(ncn2[C@@H]2O[C@@H]3COP(=O)(O)O[C@H]4[C@@H](O)[C@H](n5cnc6c(N)ncnc65)O[C@@H]4COP(=O)(O)O[C@@H]2[C@@H]3O)c(=O)[nH]1 [cGAMP, 2′3′-cGAMP]
increase in ISG expression upon transfection (4T1 cells [1]): ~2 fold
induction in Ifnb1 upon transfection (4T1 cells [1]): no induction
rescue of cancer cell migration by exogenous cGAMP (4T1 cells [2]): rescued migration only in Cgas-KO but not Enpp1-KO tumor cells
H2O2 production after addition of exogenous cGAMP (4T1 cells [3]): concentration-dependent increase

CCc1ccc(NC(=O)Nc2c[nH]c3ccccc23)cc1 [H-151]
survival of tumor bearing mice (CT26 cells): significant prolongation in overall survival
